Results taken from patent US20210330611A1, “THERAPY FOR NEUROLOGICAL DISEASES/DISORDERS” (priority 2020, published 2021).
Structures can show the parent of a compound that is named as a salt.

Experiments:
[1] = tested on: fibrin-induced microglia activation; test: Image-based assay of fibrin-induced microglia activation (HTS and dose response); type: cell-based, rat; details: for inhibition at 10 µM / Fibrin % inhibition: primary microglia HTS, fibrin stimulation, increased cell size (>800 μm^2) as marker of activation; for inhibition at 10 µM: read-out: Fibrin % inhibition
[2] = tested on: LPS-induced microglia activation; test: Image-based assay of LPS-induced microglia activation (HTS and dose response); type: cell-based, rat; details: for inhibition at 10 µM: 48 h, read-out: LPS % inhibition; for inhibition at 10 µM / LPS % inhibition: primary microglia HTS, LPS stimulation, increased cell size (>800 μm^2) as marker of activation
[3] = tested on: fibrin- and LPS-induced microglia activation; test: cells; type: cell-based, rat
primary rat microglia [4] = test: Cell toxicity (dead cells, size <150 μm2) in LPS assay; details: primary microglia HTS, LPS stimulation; decreased size (<150 μm^2) as marker of toxicity
primary rat microglia [5] = test: Cell toxicity (dead cells, size <150 μm2) in coated fibrin (cFib) assay; details: primary microglia HTS, fibrin stimulation; decreased size (<150 μm^2) as marker of toxicity;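 note: share of dead cells sized under 150 µm2 at 10 µM in fibrin-stimulated microglia HTS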
[6] = quadrant by fibrin and LPS inhibition in HTS of 1907 compounds

| SMILES | inhibition at 10 µM ([1]; Rattus norvegicus, Microglia) | inhibition at 10 µM ([2]; Rattus norvegicus, Microglia) | Quadrant (FIG. 5b) [3, 6] | LPS % cell toxicity (primary rat microglia [4]) | Fibrin % cell toxicity (primary rat microglia [5]) | Fibrin % inhibition [1] | LPS % inhibition [2] | IC50 ([1]; Rattus norvegicus, Microglia, Table 7, read-out: fib_IC50) | IC50 ([2]; Rattus norvegicus, Microglia, Table 7, read-out: LPS_IC50) | Quadrant (FIG. 5b) ([3]; Table 2, screen at 10 μM) | Activity ([3]; Table 7, fib = fibrin, LPS, tox = toxicity) |
| --- | --- | --- | --- | --- | --- | --- | --- | --- | --- | --- | --- |
| CCOc1ccc2ccccc2c1C(=O)N[C@@H]1C(=O)N2[C@@H]1SC(C)(C)[C@@H]2C(=O)O [Nafcillin Sodium] | -7% | 15% | Q4 | 0% | 0% | – | – | – | – | – | – |
| CCN(CC)CCOC(=O)C(Cc1cccc2ccccc12)CC1CCCO1 (centres unmarked) [Nafronyl Oxalate] | 15% | 15% | Q4 | 0% | 1% | – | – | – | – | – | – |
| CCn1cc(C(=O)O)c(=O)c2ccc(C)nc21 [Nalidixic Acid] | -1% | 13% | Q4 | 1% | 1% | – | – | – | – | – | – |
| CC1CCCC(C)N1 (centres unmarked) [Nanofin] | – | – | Q4 | 0% | 1% | 17% | 12% | – | – | – | – |
| c1ccc2c(CC3=NCCN3)cccc2c1 [Naphazoline] | -1% | 13% | Q4 | 1% | 1% | – | – | – | – | – | – |
| COc1ccc2cc([C@H](C)CO)ccc2c1 [Naproxol] | -10% | 16% | Q4 | 0% | 0% | – | – | – | – | – | – |
| C[C@@H]1C/C=C/C=C/C=C/C=C/[C@H](O[C@@H]2O[C@H](C)[C@@H](O)[C@H](N)[C@@H]2O)C[C@@H]2O[C@](O)(C[C@@H](O)C[C@H]3O[C@@H]3/C=C/C(=O)O1)C[C@H](O)[C@H]2C(=O)O [Natamycin] | -7% | 35% | Q4 | 0% | 1% | – | – | – | – | – | – |
| CCc1nn(CCCN2CCN(c3cccc(Cl)c3)CC2)c(=O)n1CCOc1ccccc1 [Nefazodone] | -37% | 3% | Q4 | 0% | 0% | – | – | – | – | – | – |
| Cc1cccc(C)c1NC(=O)CN1CCCC1=O [Nefiracetam] | -21% | 13% | Q4 | 0% | 0% | – | – | – | – | – | – |
| CN1CCOC(c2ccccc2)c2ccccc2C1 (centres unmarked) [Nefopam] | -15% | 3% | Q4 | 0% | 0% | – | – | – | – | – | – |
| COc1nc(N)nc2c1ncn2[C@@H]1O[C@H](CO)[C@@H](O)[C@@H]1O [Nelarabin] | – | – | Q4 | 0% | 0% | −10% | 0% | – | – | – | – |
| CN(C)C(=O)Oc1cccc([N+](C)(C)C)c1 [Neostigmine] | -15% | 15% | Q4 | 0% | 0% | – | – | – | – | – | – |
| CCN[C@@H]1C[C@H](N)[C@@H](O[C@H]2OC(CN)=CC[C@H]2N)[C@H](O)[C@H]1O[C@H]1OC[C@](C)(O)[C@H](NC)[C@H]1O.CCN[C@@H]1C[C@H](N)[C@@H](O[C@H]2OC(CN)=CC[C@H]2N)[C@H](O)[C@H]1O[C@H]1OC[C@](C)(O)[C@H](NC)[C@H]1O.O=S(=O)(O)O.O=S(=O)(O)O.O=S(=O)(O)O.O=S(=O)(O)O.O=S(=O)(O)O [Netilmicin Sulfate] | – | – | Q4 | 0% | 1% | −6% | 12% | – | – | – | – |
| Cc1ccnc2c1NC(=O)c1cccnc1N2C1CC1 [Nevirapine] | 3% | 15% | Q4 | 0% | 0% | – | – | – | – | – | – |
| O=C(CCNNC(=O)c1ccncc1)NCc1ccccc1 [Nialamide] | -6% | 11% | Q4 | 0% | 1% | – | – | – | – | – | – |
| COC(=O)C1=C(C)NC(C)=C(C(=O)OCCN(C)Cc2ccccc2)C1c1cccc([N+](=O)[O-])c1 (centres unmarked) [Nicardipine] | 11% | 12% | Q4 | 0% | 0% | – | – | – | – | – | – |
| O=C(Nc1ccc([N+](=O)[O-])cc1Cl)c1cc(Cl)ccc1O [Nicolsamide, Niclosamide] | – | – | Q4 | 1% | 1% | −2% | 21% | – | – | – | – |
| O=C(c1cccnc1)N1CCOCC1 [Nicopholine] | 26% | 21% | Q4 | 0% | 0% | – | – | – | – | – | – |

| SMILES | inhibition at 10 µM ([1]; Rattus norvegicus, Microglia) | inhibition at 10 µM ([2]; Rattus norvegicus, Microglia) | Quadrant (FIG. 5b) [3, 6] | LPS % cell toxicity (primary rat microglia [4]) | Fibrin % cell toxicity (primary rat microglia [5]) | Fibrin % inhibition [1] | LPS % inhibition [2] | IC50 ([1]; Rattus norvegicus, Microglia, Table 7, read-out: fib_IC50) | IC50 ([2]; Rattus norvegicus, Microglia, Table 7, read-out: LPS_IC50) | Quadrant (FIG. 5b) ([3]; Table 2, screen at 10 μM) | Activity ([3]; Table 7, fib = fibrin, LPS, tox = toxicity) |
| --- | --- | --- | --- | --- | --- | --- | --- | --- | --- | --- | --- |
| O=C(O)c1cccnc1Nc1cccc(C(F)(F)F)c1 [Niflumic Acid] | -14% | 9% | Q4 | 0% | 1% | – | – | – | – | – | – |
| O=C(N/N=C/c1ccc([N+](=O)[O-])o1)c1cc([N+](=O)[O-])cc([N+](=O)[O-])c1O [Nifursol] | 47% | 20% | Q4 | 0% | 1% | – | – | – | – | – | – |
| CCN(CC)C(=O)c1cccnc1 [Nikethamide] | 12% | -4% | Q4 | 0% | 0% | – | – | – | – | – | – |
| Cc1ncc(CNC(=O)N(CCCl)N=O)c(N)n1 [Nimustine] | -1% | 10% | Q4 | 0% | 1% | – | – | – | – | – | – |
| O=[N+]([O-])c1ccc([As](=O)(O)O)cc1 [Nitarsone] | – | – | Q4 | 0% | 1% | −3% | 19% | – | – | – | – |
| CC(=O)Oc1ccccc1C(=O)Nc1ncc([N+](=O)[O-])s1 [Nitazoxanide] | -16% | 22% | Q4 | 0% | 1% | – | – | – | – | – | – |
| CC(=O)Nc1ncc([N+](=O)[O-])s1 [Nithiamide] | 3% | 21% | Q4 | 1% | 1% | – | – | – | – | – | – |
| CCOC(=O)C1=C(C)NC(C)=C(C(=O)OC)C1c1cccc([N+](=O)[O-])c1 (centres unmarked) [Nitrendipine] | -12% | 18% | Q4 | 0% | 1% | – | – | – | – | – | – |
| NC(=O)N/N=C/c1ccc([N+](=O)[O-])o1 [Nitrofural] | -14% | 1% | Q4 | 0% | 0% | – | – | – | – | – | – |
| O=[N+]([O-])OCC(CO[N+](=O)[O-])O[N+](=O)[O-] [Nitroglycerin] | 2% | 17% | Q4 | 1% | 1% | – | – | – | – | – | – |
| NC(=O)c1cc([N+](=O)[O-])cc([N+](=O)[O-])c1 [Nitromide] | – | – | Q4 | 0% | 0% | −7% | 11% | – | – | – | – |
| O=[N+]([O-])c1ccc(O)c2ncccc12 [Nitroxoline] | -5% | -6% | Q4 | 0% | 1% | – | – | – | – | – | – |
| C#C[C@]1(OC(C)=O)CC[C@H]2[C@@H]3CCC4=CC(=O)CC[C@@H]4[C@H]3CC[C@@]21C [Norethindrone Acetate] | -5% | 18% | Q4 | 0% | 1% | – | – | – | – | – | – |
| COc1ccc2c(c1OC)C(=O)O[C@@H]2[C@H]1c2c(cc3c(c2OC)OCO3)CCN1C [Noscapine Hydrochloride] | -15% | 23% | Q4 | 0% | 1% | – | – | – | – | – | – |
| CO[C@@H]1[C@@H](OC(N)=O)[C@@H](O)[C@H](Oc2ccc3c(O)c(NC(=O)c4ccc(O)c(CC=C(C)C)c4)c(=O)oc3c2C)OC1(C)C [Novobiocin] | -17% | 8% | Q4 | 0% | 0% | – | – | – | – | – | – |
| CC(CCc1ccccc1)NC(C)C(O)c1ccc(O)cc1 (centres unmarked) [Nylidrin hydrochloride, reference compound] | 6% | 24% | Q4 | 1% | 0% | – | – | 2 nM | 7 nM | Q4 | fib/LPS |
| CCCCC(CC)COC(=O)c1ccccc1O (centres unmarked) [Octisalate] | -17% | 5% | Q4 | 0% | 0% | – | – | – | – | – | – |
